Results taken from publication PMC3988539 (Neuropsychopharmacology : official publication of the …, 2013).
Structures can show the parent of a compound that is named as a salt.

How the values were obtained:
[1] = system: extracellular 5-HT in nucleus accumbens; type: in vivo, rat; conditions: 6 mg/kg i.p.; for persistent elevation of extracellular 5-HT for the duration of sampling: 4 doses every 2 h, 8 h sampling, % of basal; for extracellular 5-HT after the first dose: first of 4 doses, nucleus accumbens dialysate
[2] = system: extracellular dopamine in nucleus accumbens; experiment: In vivo microdialysis in rat nucleus accumbens, dialysate dopamine; conditions: 6 mg/kg i.p., 4 doses; not different from saline in post hoc tests
[3] = molecular target: SERT (Rattus norvegicus, UniProt P31652); experiment: In vitro [3H]5-HT release from rat brain synaptosomes; type: biochemical
[4] = molecular target: hSERT (Homo sapiens, UniProt P31645); experiment: cell-based; type: cell-based; conditions: for concentration at which maximal current was measured: bell-shaped concentration-response curve; for inwardly-directed current compared to 5-HT-induced current: raw current traces, reference 10 μM 5-HT
[5] = system: [3H]dopamine release, rat caudate synaptosomes; experiment: In vitro [3H]dopamine release from rat caudate synaptosomes; type: biochemical; conditions: tested at concentrations up to 10 μM (data not shown)

Chain of hSERT (P31645 whole entry): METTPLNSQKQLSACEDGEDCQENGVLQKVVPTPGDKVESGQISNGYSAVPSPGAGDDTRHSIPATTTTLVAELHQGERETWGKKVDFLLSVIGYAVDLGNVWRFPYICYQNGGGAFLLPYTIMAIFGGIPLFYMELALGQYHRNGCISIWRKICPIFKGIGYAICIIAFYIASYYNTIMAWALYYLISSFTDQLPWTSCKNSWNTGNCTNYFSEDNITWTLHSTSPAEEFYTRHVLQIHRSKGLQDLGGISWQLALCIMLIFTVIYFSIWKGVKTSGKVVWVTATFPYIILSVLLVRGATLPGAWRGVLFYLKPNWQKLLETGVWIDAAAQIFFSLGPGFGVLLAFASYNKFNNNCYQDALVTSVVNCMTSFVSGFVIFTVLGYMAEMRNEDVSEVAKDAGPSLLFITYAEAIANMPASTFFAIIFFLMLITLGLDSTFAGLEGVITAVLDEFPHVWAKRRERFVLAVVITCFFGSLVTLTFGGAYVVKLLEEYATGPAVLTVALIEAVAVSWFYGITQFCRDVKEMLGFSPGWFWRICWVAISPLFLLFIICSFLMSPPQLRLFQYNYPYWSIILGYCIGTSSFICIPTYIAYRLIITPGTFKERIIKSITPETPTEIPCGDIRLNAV
Chain of SERT (P31652 whole entry): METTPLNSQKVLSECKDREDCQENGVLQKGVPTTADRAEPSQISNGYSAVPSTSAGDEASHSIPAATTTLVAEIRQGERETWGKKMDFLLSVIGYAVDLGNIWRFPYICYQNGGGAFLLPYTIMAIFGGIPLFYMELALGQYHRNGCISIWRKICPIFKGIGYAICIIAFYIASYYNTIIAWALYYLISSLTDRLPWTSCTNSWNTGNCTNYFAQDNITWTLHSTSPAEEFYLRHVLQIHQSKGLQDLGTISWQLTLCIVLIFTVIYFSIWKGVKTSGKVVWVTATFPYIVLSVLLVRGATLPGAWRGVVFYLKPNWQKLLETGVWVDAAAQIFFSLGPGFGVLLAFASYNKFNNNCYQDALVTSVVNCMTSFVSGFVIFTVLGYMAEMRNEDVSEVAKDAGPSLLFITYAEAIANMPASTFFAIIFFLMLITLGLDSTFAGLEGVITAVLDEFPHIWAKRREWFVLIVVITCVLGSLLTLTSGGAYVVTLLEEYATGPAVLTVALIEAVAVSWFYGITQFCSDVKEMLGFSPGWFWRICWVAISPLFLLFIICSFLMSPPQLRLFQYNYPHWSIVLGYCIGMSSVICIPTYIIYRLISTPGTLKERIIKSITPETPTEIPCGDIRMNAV

SMILES	persistent elevation of extracellular 5-HT for the duration of sampling [1]	extracellular 5-HT after the first dose [1]	dialysate dopamine [2]	Emax of 5-HT release [3] [%]	concentration at which maximal current was measured ([4]; hSERT-expressing oocytes) [µM]	current magnitude relative to mCPP, TFMPP or MTA ([4]; maximal currents, hSERT-expressing oocytes)	inwardly-directed current compared to 5-HT-induced current [4]	releasing [3H]dopamine [5]	EC50 [4] [nM]
CCNC(C)Cc1cccc(C(F)(F)F)c1 (racemic) [fenfluramine, (±)-N-ethyl-1-[3-(trifluoromethyl)phenyl]propan-2-amine hydrochloride]	500-800%	~1200 % of basal	about 150 % of basal						
CC(N)Cc1cccc(C(F)(F)F)c1.Cl (single isomer, unassigned; (+)) [d-norfenfluramine, (+)-1-[3-(trifluoromethyl)phenyl]propan-2-amine hydrochloride]				100	100	up to 2 times	almost as high as the 5-HT-induced current		
CSc1ccc(CC(C)N)cc1.CSc1ccc(C[C@@H](C)N)cc1 [MTA, 4-Methylthioamphetamine ((2R)-1-[4-(methylsulfanyl)phenyl]propan-2-amine)]					3		comparably small current		
Cl.FC(F)(F)c1cccc(N2CCNCC2)c1 [TFMPP, 1-(3-trifluoromethylphenyl)piperazine hydrochloride]		about 1400 % of basal	80 % of basal		3		about half the 5-HT-induced current	inactive	2430
CCN[C@@H](C)Cc1cccc(C(F)(F)F)c1 [d-fenfluramine, (+)-N-ethyl-1-[3-(trifluoromethyl)phenyl]propan-2-amine hydrochloride]		~1200 % of basal						inactive	
Cl.Cl.Clc1cccc(N2CCNCC2)c1 [mCPP, 1-(3-Chlorophenyl)piperazine dihydrochloride]	about 500%	about 1000 % of basal	150 % of basal		3		about half the 5-HT-induced current	inactive	1940
